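Cells were grown in 96-well plates and exposed to each compound for 48 hours at five concentrations; endpoints were interpolated linearly between bracketing concentrations, or set to the highest concentration if not reached. At the TGI there is no net growth.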
Key:
Assay in all cases: inhibition of tumour cell growth, NCI panel, 48 h
SK-MEL-28 melanoma = test system: SK-MEL-28 melanoma
M14 melanoma = test system: M14 melanoma
MALME-3M melanoma = test system: MALME-3M melanoma
A498 renal = test system: A498 renal
CCRF-CEM leukemia = test system: CCRF-CEM leukemia
PC-3 prostate = test system: PC-3 prostate
EKVX NSCLC = test system: EKVX NSCLC
OVCAR-3 ovarian = test system: OVCAR-3 ovarian
SF-295 CNS = test system: SF-295 CNS
HS 578T breast = test system: HS 578T breast

SMILES	TGI (SK-MEL-28 melanoma)	TGI (M14 melanoma)	TGI (MALME-3M melanoma)	TGI (A498 renal)	TGI (CCRF-CEM leukemia)	TGI (PC-3 prostate)	TGI (EKVX NSCLC)	TGI (OVCAR-3 ovarian)	TGI (SF-295 CNS)	TGI (HS 578T breast)
CCOC(=O)c1c(SCc2cc(=O)[nH]c(=O)[nH]2)n(-c2ccccc2)c(=S)n(-c2ccccc2)c1=O	> 100 µM	> 100 µM	> 100 µM	> 100 µM	> 100 µM	> 100 µM	> 100 µM	> 100 µM	–	–
CCCCNC(=O)Cn1c2ccc(Br)cc2c2nc3ccccc3nc21	> 100 µM	> 100 µM	–	> 100 µM	> 100 µM	> 100 µM	–	> 100 µM	> 100 µM	> 100 µM
N#Cc1c(-c2ccc([N+](=O)[O-])cc2)c(C#N)c(=O)n(NS(=O)(=O)c2ccccc2)c1O	> 100 µM	> 100 µM	> 100 µM	> 100 µM	> 100 µM	> 100 µM	> 100 µM	> 100 µM	> 100 µM	–
CC(C)(C)N=NC(C)(C)N=C=O	> 100 µM	> 100 µM	> 100 µM	> 100 µM	> 100 µM	–	> 100 µM	> 100 µM	> 100 µM	–
CC(C)(C)/C(O)=C\c1nc2cc(F)c(F)cc2[nH]c1=O	> 100 µM	> 100 µM	–	> 100 µM	> 100 µM	> 100 µM	> 100 µM	–	> 100 µM	> 100 µM
CC[C@]12C=CCN3CCC4(c5cc([C@@]6(C(=O)OC)CC7CN(CCc8c6[nH]c6ccccc86)CC6CCCCC67)c(OC)cc5N(C)C4[C@](O)(C(=O)OC)C1OC(C)=O)[C@@H]32 (stereo partly specified)	–	1.35 µM	7.05 µM	0.576 µM	> 20.6 µM	0.393 µM	21.7 µM	–	15.1 µM	< 0.01 µM
C=CN(C=C)C(=O)Cn1cc(-c2ccccc2)nn1	> 100 µM	> 100 µM	> 100 µM	–	> 100 µM	> 100 µM	> 100 µM	–	> 100 µM	–
CN1C2=Nc3n(c4ccccc4[n+]3C)CN2c2ccccc21	–	> 100 µM	18 µM	–	> 100 µM	> 100 µM	> 100 µM	34.7 µM	> 100 µM	90.8 µM
Oc1ccccc1/C=N/N1C(=S)N(C23CC4CC(CC(C4)C2)C3)C(=Nc2ccccc2)C1=Nc1ccccc1	> 100 µM	> 100 µM	> 100 µM	–	–	> 100 µM	> 100 µM	> 100 µM	> 100 µM	> 100 µM
CSc1ncc2c(n1)-c1ccccc1OC2NC1CC1 (stereo unspecified)	–	> 100 µM	–	28 µM	> 100 µM	> 100 µM	> 100 µM	> 100 µM	> 100 µM	> 100 µM
Clc1ccc(/C(=C/c2ccccc2)Cn2ccnc2)cc1	> 100 µM	65.6 µM	> 100 µM	77.7 µM	> 100 µM	94 µM	> 100 µM	–	> 100 µM	> 100 µM
OC(CC(O)(C(F)(F)Cl)C(F)(F)Cl)c1ccccc1 (stereo unspecified)	> 10 µM	–	> 10 µM	0.0548 µM	> 10 µM	> 10 µM	> 10 µM	> 10 µM	> 10 µM	> 10 µM
O=c1c2ccc(Cl)cc2oc2c(CNc3ccc(S(=O)(=O)Nc4ncccn4)cc3)cccc12	> 100 µM	> 100 µM	> 100 µM	> 100 µM	> 100 µM	> 100 µM	> 100 µM	> 100 µM	> 100 µM	–
COc1ccc(C(=O)/C=C/SC(=NC#N)SC)cc1	96.7 µM	35.1 µM	50.3 µM	60.7 µM	–	> 100 µM	> 100 µM	37.2 µM	76 µM	68.3 µM
O=[N+]([O-])c1ccc(-c2csc(=[N+]3CCCCC3)s2)cc1	> 100 µM	> 100 µM	32.1 µM	63.6 µM	> 100 µM	–	> 100 µM	> 100 µM	> 62.5 µM	–
CSc1nc(=O)c2nc(-c3cccs3)c(-c3cccs3)nc2n1C	> 100 µM	> 100 µM	> 100 µM	> 100 µM	> 100 µM	> 100 µM	> 100 µM	–	> 100 µM	> 100 µM
O=C1CC[C@@]23CC(=O)O[C@@H]2CCCC3C1 (stereo partly specified)	> 100 µM	> 100 µM	> 100 µM	–	> 100 µM	> 100 µM	> 100 µM	–	> 100 µM	> 100 µM
CN(C)/N=N/c1nc2c(c(=O)n(C)c(=O)n2C)n1CC1CO1 (stereo unspecified)	59.7 µM	32.6 µM	25.1 µM	–	> 100 µM	56.4 µM	57.9 µM	31.4 µM	56.9 µM	–
CC(C)=C/C(CC(O)(C(F)(F)F)C(F)(F)F)=N\O	> 100 µM	> 100 µM	> 100 µM	> 100 µM	> 100 µM	–	> 100 µM	–	> 100 µM	> 100 µM
O=c1c2c3c(sc2nc2n1N=C(c1ccc(Br)cc1)CS2)CCCC3	> 100 µM	> 100 µM	> 100 µM	> 100 µM	> 100 µM	> 100 µM	> 100 µM	> 100 µM	> 100 µM	–
Cn1c(=O)cc(NNc2ccc(Cl)c(Cl)c2)[nH]c1=O	25.1 µM	20.3 µM	–	> 100 µM	37.3 µM	25.4 µM	24.2 µM	28.8 µM	43.2 µM	56 µM
CSc1ccc(/C=C2\N=C(c3ccccc3)N(c3nc4cc(Cl)c(F)cc4s3)C2=O)cc1	> 100 µM	> 100 µM	–	> 100 µM	55.6 µM	> 100 µM	> 100 µM	60.1 µM	> 100 µM	97.3 µM
CC1(C)C=C(/C=C2/N(S(=O)(=O)C(F)(F)F)C(/C=C3/N(S(=O)(=O)C(F)(F)F)C(C)(C#N)CC3(C)C)=CC2(C)C)N=C1/C=C1/CC(C)(C)C(=O)N1 (stereo unspecified)	> 100 µM	> 100 µM	–	> 100 µM	52.8 µM	> 100 µM	81.2 µM	> 100 µM	> 100 µM	57.7 µM

SMILES	TGI (SK-MEL-28 melanoma)	TGI (M14 melanoma)	TGI (MALME-3M melanoma)	TGI (A498 renal)	TGI (CCRF-CEM leukemia)	TGI (PC-3 prostate)	TGI (EKVX NSCLC)	TGI (OVCAR-3 ovarian)	TGI (SF-295 CNS)	TGI (HS 578T breast)
c1cncc(CSc2nc3ccccc3nc2-c2cccs2)c1	> 100 µM	> 100 µM	> 100 µM	–	> 100 µM	–	> 100 µM	83.3 µM	> 100 µM	–
NC(=O)c1ccc[n+](C2=C([O-])c3ccccc3C(=O)/C2=N\S(=O)(=O)c2ccccc2)c1	30.2 µM	29.1 µM	20.1 µM	–	> 100 µM	30.2 µM	27.8 µM	17 µM	31.5 µM	47.3 µM
CNC(=S)N1CCN(C(C)=O)C1=S	> 100 µM	> 100 µM	43.2 µM	> 100 µM	> 100 µM	–	91.9 µM	> 100 µM	> 100 µM	87.5 µM
CCCCN(CCCC)CC(C(C)=O)C(c1ccccc1)c1c(O)c2ccccc2oc1=O (stereo unspecified)	> 100 µM	> 100 µM	> 100 µM	–	> 100 µM	–	> 100 µM	> 100 µM	> 100 µM	–
C=C(C)[C@H]1CC23C(=O)[C@@](C)(C[C@H]2C1(C)C)C(=O)C(C(=O)C(C)C)=C3O	28.6 µM	31.4 µM	28.6 µM	–	24.9 µM	33 µM	28.8 µM	37.7 µM	36.7 µM	58.1 µM
C=C1[C@@H]2CCC3[C@]4(C)C(CC[C@@]5(C)C(=O)O[C@H](O)[C@@H]45)[C@H](O)[C@]3(C2)[C@H]1OC1OC(CO)C(O)C(O)C1O (stereo partly specified)	> 50 µM	> 50 µM	> 50 µM	> 50 µM	–	> 50 µM	> 50 µM	> 50 µM	> 50 µM	> 50 µM
C/C(=C\CSCC(N)C(=O)O)CC/C=C(\C)CNc1ccccc1 (stereo unspecified)	> 100 µM	> 100 µM	> 100 µM	–	–	> 100 µM	> 100 µM	> 100 µM	> 100 µM	> 100 µM
Nc1c(N2CCOCC2)c(=O)nc2[nH]/c(=C\c3ccccc3O)c(=O)n12	> 100 µM	> 100 µM	> 100 µM	> 100 µM	> 100 µM	–	> 100 µM	–	> 100 µM	> 100 µM
COC1(CC[C@H](C)COC2OC(CO)C(O)C(O)C2O)O[C@H]2C[C@H]3[C@@H]4CC=C5C[C@@H](OC6OC(CO)C(OC7OC(C)C(O)C(O)C7O)C(O)C6OC6OC(C)C(O)C(O)C6O)CC[C@]5(C)[C@H]4CC[C@]3(C)[C@H]2[C@@H]1C (stereo partly specified)	15.8 µM	–	9.15 µM	64.5 µM	> 37.1 µM	11.9 µM	98.8 µM	17.6 µM	13.6 µM	6.72 µM
CN(C)CCCNC(=O)N/N=C/c1ccccc1	> 100 µM	–	> 100 µM	> 100 µM	> 100 µM	–	–	> 100 µM	> 100 µM	–
N#CCCN(CCC#N)c1ccc(C(N=Nc2ccccc2)=Nc2ccc(F)cc2)cc1	> 100 µM	> 100 µM	–	> 100 µM	–	> 100 µM	> 100 µM	> 100 µM	> 100 µM	> 100 µM
O=C1CSC(c2c[nH]c3ccccc23)N1c1ccc(Cl)cc1Cl (stereo unspecified)	> 100 µM	> 100 µM	–	–	> 100 µM	> 100 µM	> 100 µM	> 100 µM	> 100 µM	–
O=C(c1ccco1)N(C(=O)N1CCC(c2ccccc2)CC1)c1ccccc1	> 100 µM	> 100 µM	> 100 µM	> 100 µM	> 100 µM	> 100 µM	> 100 µM	> 100 µM	–	> 100 µM
Cc1c(C(=O)NNc2ccccc2)n2c(=S)[nH]nc2c2ccccc12	> 100 µM	> 100 µM	–	> 100 µM	> 100 µM	> 100 µM	> 100 µM	> 100 µM	> 100 µM	> 100 µM
COc1ccc([C@]23CCC4(OCC(C)(C)CO4)[C@H]4CON(O[C@H](O[C@@H]5CCCCC5C(C)(C)c5ccccc5)C2)[C@@H]43)cc1OC (stereo partly specified)	> 100 µM	> 100 µM	> 100 µM	> 100 µM	> 100 µM	> 100 µM	> 100 µM	> 100 µM	> 100 µM	–
Cc1cc(S(=O)(=O)N=C2Nc3cccc4cccc(c34)N2)c(S)cc1Cl	> 100 µM	> 100 µM	> 100 µM	–	> 100 µM	> 100 µM	> 100 µM	> 100 µM	> 100 µM	> 100 µM
O=C1Nc2cc(F)ccc2C1=O	> 100 µM	> 100 µM	> 100 µM	> 100 µM	> 100 µM	–	> 100 µM	–	> 100 µM	–
CC(C)(C)c1ccnc(N=C2N=C(Nc3cc(C(C)(C)C)ccn3)c3ccccc32)c1	86.8 µM	> 100 µM	63.7 µM	53.4 µM	> 100 µM	–	> 100 µM	47.4 µM	52 µM	–
CC[C@H](NC(=O)OC(C)(C)C)C(=O)NCP(=O)(OCc1ccc([N+](=O)[O-])cc1)OCc1ccc([N+](=O)[O-])cc1	92.9 µM	> 100 µM	> 100 µM	–	> 100 µM	> 100 µM	–	> 100 µM	55.7 µM	> 100 µM
COc1cc2c(c(OC)c1)[C@H](C)N(Cc1ccccc1)C(C)C2 (stereo partly specified)	> 100 µM	> 100 µM	> 100 µM	> 100 µM	> 100 µM	> 100 µM	> 100 µM	–	> 100 µM	> 100 µM
Cc1ccc(C)c(COCCOCn2cc(N3CCOCC3)c(=O)[nH]c2=O)c1	> 100 µM	> 100 µM	> 100 µM	> 100 µM	> 100 µM	> 100 µM	> 100 µM	–	> 100 µM	> 100 µM
CCOC(=O)C(NC(=O)c1cccc(Cl)c1)(Nc1cccc(C)c1)C(F)(F)F (stereo unspecified)	35.1 µM	–	30.4 µM	–	> 100 µM	43.6 µM	63.1 µM	–	–	49.4 µM
C[As+](C)(c1ccc(Br)c([N+](=O)[O-])c1)c1ccc(Br)c([N+](=O)[O-])c1.O=[N+]([O-])O	76.8 µM	> 100 µM	34.1 µM	> 100 µM	–	> 100 µM	> 100 µM	> 100 µM	> 100 µM	> 100 µM
